The values that follow come from patent US20160166488A1, “MEDICAMENT” (SYMRISE AG, priority 2013, published 2016).

The test has as its system MMP-1. The experiment in a line: Inhibition of MMP-1 synthesis: release of MMP-1 from dermal fibroblasts as an effect of UV radiation (Amersham kit RPN2610). The class given is cell-based. Particulars: dermal fibroblast culture, test product conc. 0.001 % w/v, incubation 36 h at 37° C., threefold determination; for MMP with UVA: with UVA (method text: UVB radiation 50 mJ/cm^2). The protocol:
Inhibition of MMP-1 Synthesis
The capacity of the test substances to alleviate the toxic effect of UVA radiation was investigated. A culture of dermal fibroblasts was used as an in vitro system, and the release of MMP-1 from these fibroblasts as an effect of UV radiation was determined. In order to carry out the experiment, a fibroblast culture with fetal calf serum was prepared and inoculated with the test substances 2 days thereafter. After incubation for 36 h at 37° C. with a CO2 level of 5 vol %, the nutrient medium was replaced with an electrolyte solution, and the fibroblasts were damaged with a specified dose of UVB radiation (50 mJ/cm^2). Determination of MMP was carried out with a kit that is commercially available from the firm Amersham under the name RPN2610. The amount of MMP is given in ng/ml from a test series with threefold determination.

`C[N+](C)(C)C[C@H](O)CC(=O)O.[Cl-]` [Carnitine*HCl]: the “MMP with UVA” value stood at 118 ± 21 rel. % and the “MMP without UVA” value was 24 ± 7 rel. %.
For `NCCC(=O)N[C@@H](Cc1cnc[nH]1)C(=O)O` [L-carnosine], in that order: 101 ± 17 rel. % and 22 ± 5 rel. %.
The corresponding values for `CCCCC(CC)COC(=O)C(C#N)=C(c1ccccc1)c1ccccc1` (centres unmarked) [Octocrinyl, 2-cyano-3,3-phenylcinnamic acid-2-ethylhexyl ester] are 100 ± 20 rel. % and 17 ± 7 rel. %.
For `CCCCCCOC(=O)c1ccccc1C(=O)c1ccc(N(CC)CC)cc1O` [Uvinul A, 2-(4-diethylamino-2-hydroxybenzoyl)-benzoic acid hexyl ester], in that order: 99 ± 12 rel. % and 17 ± 3 rel. %.
